The source made the active and inactive calls. The calls are words filed in the database; no cut-off is given here.
How the values were obtained:
[1] = target: T1, Sigma intracellular receptor 2 (Rattus norvegicus, UniProt Q5U3Y7); assay: Displacement of [3H]di-o-tolylguanidine from sigma2 receptor in rat liver membrane assessed as inhibition constant measured after 120 mins by scintillation counting method; format: cell membranes
T1 sequence (Q5U3Y7 whole entry): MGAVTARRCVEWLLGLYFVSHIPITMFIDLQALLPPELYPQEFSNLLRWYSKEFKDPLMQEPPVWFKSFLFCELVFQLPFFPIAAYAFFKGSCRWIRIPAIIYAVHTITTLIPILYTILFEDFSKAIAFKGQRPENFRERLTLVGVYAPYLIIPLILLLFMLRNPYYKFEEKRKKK

[2] = target: Sigma non-opioid intracellular receptor 1 (Cavia porcellus, UniProt Q60492); assay: Displacement of [3H]-(+)-pentazocine from sigma1 receptor in guinea pig brain membrane assessed as inhibition constant measured after 120 mins by scintillation counting method; format: cell membranes
[3] = Drug metabolism in rat liver microsome assessed as formation of glucuronide metabolite (2S,3S,4S,5R,6R)-6-(5-(3-(4-(4-fluorobenzyl)piperidin-1-yl)prop-1-yn-1-yl)-1H-indazol-1-yl)-3,4,5-trihydroxytetrahydro-2H-pyran-2-carboxylic acid in presence of NADPH/UDP-GA by LC-MS analysis; format: ADME; conditions: microsomes
[4] = target: T2, Glutamate receptor ionotropic, NMDA 2B (Homo sapiens, UniProt Q05586+Q13224); assay: Displacement of [3H]ifenprodil from human GluN2B expressed in mouse L-M(TK-) cell membrane coexpressing GluN1a assessed as inhibition constant measured after 120 mins by competitive binding assay; format: cell membranes
[5] = Lipophilicity, log D of compound at pH 7.4 by LC-MS analysis; format: physicochemical; conditions: buffer
[6] = target: T2, Glutamate receptor ionotropic, NMDA 2B; assay: Antagonist activity at GluN2B receptor (unknown origin) expressed in Xenopus oocytes coexpressing GluN1a at -70 mV holding potential in presence of (S)-glutamate/glycine by TEVC analysis; format: cell-based, Oocyte
[7] = Drug metabolism in rat liver microsome assessed as formation of glucuronide metabolite (2S,3S,4S,5R,6R)-6-(5-((R)-3-(4-benzylpiperidin-1-yl)-1-hydroxypropyl)-1H-indazol-1-yl)-3,4,5-trihydroxytetrahydro-2H-pyran-2-carboxylic acid in presence of NADPH/UDP-GA by LC-MS analysis; format: ADME; conditions: microsomes
[8] = Metabolic stability in rat liver microsome assessed as intact compound incubated for 90 mins in presence of NADPH by LC-MS analysis; format: ADME; conditions: liver microsomes, read-out: Stability
[9] = Drug metabolism in rat liver microsome assessed as formation of glucuronide metabolite (2S,3S,4S,5R,6R)-6-(5-((S)-3-(4-benzylpiperidin-1-yl)-1-hydroxypropyl)-1H-indazol-1-yl)-3,4,5-trihydroxytetrahydro-2H-pyran-2-carboxylic acid in presence of NADPH/UDP-GA by LC-MS analysis; format: ADME; conditions: microsomes
[10] = target: Glutamate NMDA receptor; GRIN1/GRIN2B (Homo sapiens, UniProt Q05586+Q13224); assay: Antagonist activity at GluN1A/GluN2B receptor (unknown origin) expressed in Xenopus oocytes by voltage clamp method; format: cell-based, Oocyte
[11] = Drug metabolism in rat liver microsome assessed as formation of glucuronide metabolite (2S,3S,4S,5R,6S)-6-(4-((1R,2S)-3-(4-benzylpiperidin-1-yl)-1-hydroxy-2-methylpropyl)phenoxy)-3,4,5-trihydroxytetrahydro-2H-pyran-2-carboxylic acid in presence of NADPH/UDP-GA by LC-MS analysis; format: ADME; conditions: microsomes
[12] = target: Glutamate receptor ionotropic, NMDA 2B (Homo sapiens) (UniProt Q13224); assay: Antagonist activity at GluN2B receptor (unknown origin) expressed in Xenopus oocytes coexpressing GluN1a at 10 uM at -70 mV holding potential in presence of (S)-glutamate/glycine by TEVC analysis relative to control; format: cell-based; conditions: Oocyte, filed as antagonist
[13] = target: Glutamate receptor ionotropic, NMDA 2B (Homo sapiens) (UniProt Q13224); assay: Antagonist activity at GluN2B receptor (unknown origin) expressed in Xenopus oocytes coexpressing GluN1a at 1 uM at -70 mV holding potential in presence of (S)-glutamate/glycine by TEVC analysis; format: cell-based; conditions: Oocyte, filed as antagonist
[14] = Drug metabolism in rat liver microsome assessed as formation of glucuronide metabolite (2S,3S,4S,5R,6S)-6-(4-(3-(4-(4-fluorobenzyl)piperidin-1-yl)prop-1-yn-1-yl)phenoxy)-3,4,5-trihydroxytetrahydro-2H-pyran-2-carboxylic acid in presence of NADPH/UDP-GA by LC-MS analysis; format: ADME; conditions: microsomes

Chain of Glutamate receptor ionotropic, NMDA 2B (Homo sapiens) (Q13224 27-1484 limits assumed): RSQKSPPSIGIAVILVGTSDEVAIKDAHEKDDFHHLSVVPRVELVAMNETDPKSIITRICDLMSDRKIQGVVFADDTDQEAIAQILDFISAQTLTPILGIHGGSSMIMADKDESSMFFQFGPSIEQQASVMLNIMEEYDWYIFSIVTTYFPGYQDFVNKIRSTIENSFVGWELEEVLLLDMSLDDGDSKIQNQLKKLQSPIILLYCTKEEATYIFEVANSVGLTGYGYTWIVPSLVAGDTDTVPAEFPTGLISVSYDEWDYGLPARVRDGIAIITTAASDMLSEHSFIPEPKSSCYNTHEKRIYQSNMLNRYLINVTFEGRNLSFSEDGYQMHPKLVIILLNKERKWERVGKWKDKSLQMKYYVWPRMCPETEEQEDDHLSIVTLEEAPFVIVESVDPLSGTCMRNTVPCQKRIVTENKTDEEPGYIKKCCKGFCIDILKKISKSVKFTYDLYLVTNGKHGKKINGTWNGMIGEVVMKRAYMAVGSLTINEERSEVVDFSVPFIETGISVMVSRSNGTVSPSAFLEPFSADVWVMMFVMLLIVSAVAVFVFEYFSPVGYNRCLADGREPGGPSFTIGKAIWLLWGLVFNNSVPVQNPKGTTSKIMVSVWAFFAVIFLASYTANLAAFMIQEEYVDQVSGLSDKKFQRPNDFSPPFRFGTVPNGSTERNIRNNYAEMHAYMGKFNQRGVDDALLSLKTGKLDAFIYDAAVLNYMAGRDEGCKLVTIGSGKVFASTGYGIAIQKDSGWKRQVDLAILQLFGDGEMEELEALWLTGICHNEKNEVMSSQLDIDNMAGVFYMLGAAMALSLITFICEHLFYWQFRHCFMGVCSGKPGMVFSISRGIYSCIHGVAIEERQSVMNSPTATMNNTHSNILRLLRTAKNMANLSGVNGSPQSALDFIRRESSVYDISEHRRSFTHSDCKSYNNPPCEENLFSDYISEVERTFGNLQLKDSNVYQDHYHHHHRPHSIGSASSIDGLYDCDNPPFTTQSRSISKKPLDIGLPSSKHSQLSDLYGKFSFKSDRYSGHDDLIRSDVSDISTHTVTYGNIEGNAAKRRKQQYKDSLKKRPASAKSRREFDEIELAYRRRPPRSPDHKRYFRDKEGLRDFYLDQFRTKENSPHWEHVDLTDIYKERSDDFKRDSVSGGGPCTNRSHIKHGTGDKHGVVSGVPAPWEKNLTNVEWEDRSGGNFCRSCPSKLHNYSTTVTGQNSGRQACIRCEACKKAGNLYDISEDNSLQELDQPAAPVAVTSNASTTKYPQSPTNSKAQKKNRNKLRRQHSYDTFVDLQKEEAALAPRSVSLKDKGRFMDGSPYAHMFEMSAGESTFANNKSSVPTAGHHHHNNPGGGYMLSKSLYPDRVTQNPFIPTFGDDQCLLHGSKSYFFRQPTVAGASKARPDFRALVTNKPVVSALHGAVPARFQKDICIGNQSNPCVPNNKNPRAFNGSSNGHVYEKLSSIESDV
Chain of Sigma non-opioid intracellular receptor 1 (Q60492 whole entry): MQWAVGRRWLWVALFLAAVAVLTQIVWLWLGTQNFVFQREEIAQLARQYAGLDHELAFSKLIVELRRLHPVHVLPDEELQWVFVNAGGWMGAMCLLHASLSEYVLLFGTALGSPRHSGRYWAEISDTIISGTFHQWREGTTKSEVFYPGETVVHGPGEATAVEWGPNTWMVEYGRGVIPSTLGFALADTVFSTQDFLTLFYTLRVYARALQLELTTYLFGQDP
T2 sequence (Q13224 whole entry, one chain of several): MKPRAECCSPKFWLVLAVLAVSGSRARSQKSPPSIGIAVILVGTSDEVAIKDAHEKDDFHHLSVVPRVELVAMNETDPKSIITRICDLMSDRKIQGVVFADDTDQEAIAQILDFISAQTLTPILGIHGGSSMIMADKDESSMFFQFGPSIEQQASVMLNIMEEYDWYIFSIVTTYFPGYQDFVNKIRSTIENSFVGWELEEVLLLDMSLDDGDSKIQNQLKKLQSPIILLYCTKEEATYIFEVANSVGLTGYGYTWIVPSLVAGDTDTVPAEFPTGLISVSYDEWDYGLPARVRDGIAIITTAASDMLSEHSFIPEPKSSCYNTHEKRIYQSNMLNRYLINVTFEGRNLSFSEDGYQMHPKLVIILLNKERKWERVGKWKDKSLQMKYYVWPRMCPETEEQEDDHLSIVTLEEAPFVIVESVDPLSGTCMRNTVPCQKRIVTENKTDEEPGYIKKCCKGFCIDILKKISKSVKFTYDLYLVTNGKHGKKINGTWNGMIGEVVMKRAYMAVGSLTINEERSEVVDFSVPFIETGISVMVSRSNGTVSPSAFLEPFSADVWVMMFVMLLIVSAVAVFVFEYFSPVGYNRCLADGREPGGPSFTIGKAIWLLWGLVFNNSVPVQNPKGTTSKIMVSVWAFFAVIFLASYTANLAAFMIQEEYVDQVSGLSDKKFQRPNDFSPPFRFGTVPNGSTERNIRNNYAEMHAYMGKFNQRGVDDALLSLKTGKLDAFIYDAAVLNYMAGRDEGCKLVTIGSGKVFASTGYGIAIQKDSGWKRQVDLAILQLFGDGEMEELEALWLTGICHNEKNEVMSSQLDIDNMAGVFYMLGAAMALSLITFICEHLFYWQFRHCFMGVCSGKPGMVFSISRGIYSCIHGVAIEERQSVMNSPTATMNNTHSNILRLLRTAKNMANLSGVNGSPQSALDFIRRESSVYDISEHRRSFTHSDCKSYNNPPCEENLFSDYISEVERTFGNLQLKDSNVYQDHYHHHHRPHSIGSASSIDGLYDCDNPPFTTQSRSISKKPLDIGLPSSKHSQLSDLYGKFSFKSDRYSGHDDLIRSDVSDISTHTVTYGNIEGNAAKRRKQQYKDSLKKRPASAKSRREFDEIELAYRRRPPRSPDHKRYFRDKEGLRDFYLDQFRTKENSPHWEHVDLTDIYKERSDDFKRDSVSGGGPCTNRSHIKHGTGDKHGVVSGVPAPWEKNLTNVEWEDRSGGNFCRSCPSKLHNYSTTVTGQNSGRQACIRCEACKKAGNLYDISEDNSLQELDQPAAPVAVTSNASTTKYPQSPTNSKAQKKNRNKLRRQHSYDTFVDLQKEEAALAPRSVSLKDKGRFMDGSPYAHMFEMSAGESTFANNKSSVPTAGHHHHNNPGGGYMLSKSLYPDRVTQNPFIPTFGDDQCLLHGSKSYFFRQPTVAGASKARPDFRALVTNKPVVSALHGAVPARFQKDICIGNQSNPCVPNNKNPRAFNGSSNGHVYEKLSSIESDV
Chain of Glutamate NMDA receptor; GRIN1/GRIN2B (Q13224 whole entry, other chains not shown): as the sequence (Q13224 whole entry, one chain of several) above

SMILES	Ki [1]	Ki [2]	Ki [4]	further results
Fc1ccc(CC2CCN(CC#Cc3ccc4[nH]ncc4c3)CC2)cc1	13 nM	6.6 nM	13 nM	Drug metabolism [3]: Metabolite_Notdetected; logD [5]: 4.35
C(=C/c1ccc2[nH]ncc2c1)/CN1CCC(Cc2ccccc2)CC1	135 nM	562 nM	120 nM	
Fc1ccc(CC2CCN(C/C=C\c3ccc4[nH]ncc4c3)CC2)cc1	97 nM	77 nM	42 nM	
Cn1cc2cc(C#CCN3CCC(Cc4ccc(F)cc4)CC3)ccc2n1	151 nM	32 nM	182 nM	
Fc1ccccc1CC1CCN(CC#Cc2ccc3[nH]ncc3c2)CC1	31 nM	57 nM	25 nM	
Cn1ncc2cc(C#CCN3CCC(Cc4ccccc4)CC3)ccc21	320 nM	20 nM	38 nM	
O=C(CCN1CCC(Cc2ccc(F)cc2)CC1)c1ccc2[nH]ncc2c1	51 nM	21 nM	56 nM	
Oc1ccc(C#CCN2CCC(Cc3ccccc3)CC2)cc1				IC50 [10]: 100 nM
C(=C\c1ccc2[nH]ncc2c1)/CN1CCC(Cc2ccccc2)CC1	10 nM	2.7 nM	6.6 nM	
C[C@@H](CN1CCC(Cc2ccccc2)CC1)[C@@H](O)c1ccc(O)cc1				Drug metabolism [11]: Metabolite_Detected
Cn1cc2cc(C#CCN3CCC(Cc4ccccc4)CC3)ccc2n1	63 nM	23 nM	136 nM	
Fc1ccc(CC2CCN(CC#Cc3ccc4cn[nH]c4c3)CC2)cc1	850 nM	26 nM	35 nM	
Fc1ccc(CC2CCN(CCCc3ccc4[nH]ncc4c3)CC2)cc1	14 nM	4.2 nM	13 nM	
Fc1ccc(CC2CCN(C/C=C/c3ccc4[nH]ncc4c3)CC2)cc1	37 nM	10 nM	20 nM	
O=C(CCN1CCC(Cc2ccccc2F)CC1)c1ccc2[nH]ncc2c1	19 nM	17 nM	20 nM	
Oc1ccc(C#CCN2CCC(Cc3ccc(F)cc3)CC2)cc1	37 nM	36 nM	12 nM	Drug metabolism [14]: Metabolite_Detected; logD [5]: 4.4
C(#Cc1ccc2cn[nH]c2c1)CN1CCC(Cc2ccccc2)CC1	520 nM	12 nM	53 nM	
Cn1ncc2cc(C#CCN3CCC(Cc4ccc(F)cc4)CC3)ccc21	63 nM	40 nM	29 nM	

Now from value to molecule, other results behind:

Ki [1]	Ki [2]	Ki [4]	SMILES	further results
241 nM	58 nM	265 nM	O[C@H](CCN1CCC(Cc2ccccc2)CC1)c1ccc2[nH]ncc2c1	IC50 [6]: 62 nM; Drug metabolism [7]: Metabolite_Notdetected; remaining at 1.5 h [8]: ~67%
18 nM	12 nM	32 nM	OC(CCN1CCC(Cc2ccc(F)cc2)CC1)c1ccc2[nH]ncc2c1 (stereo not given)	logD [5]: 2.02
124 nM	86 nM	93 nM	O[C@@H](CCN1CCC(Cc2ccccc2)CC1)c1ccc2[nH]ncc2c1	Drug metabolism [9]: Metabolite_Notdetected; IC50 [6]: 72 nM; remaining at 1.5 h [8]: ~67%
12 nM	7.5 nM	5.7 nM	c1ccc(CC2CCN(CCCc3ccc4[nH]ncc4c3)CC2)cc1	inhibition [12]: > 80%; logD [5]: 2.63
11 nM	26 nM	11 nM	C(#Cc1ccc2[nH]ncc2c1)CN1CCC(Cc2ccccc2)CC1	IC50 [10]: 380 nM; logD [5]: 4.17
18 nM	8.8 nM	18 nM	O=C(CCN1CCC(Cc2ccccc2)CC1)c1ccc2[nH]ncc2c1	inhibition [13]: Active; inhibition [12]: > 80%; logD [5]: 2.64
119 nM	224 nM	38 nM	OC(CCN1CCC(Cc2ccccc2F)CC1)c1ccc2[nH]ncc2c1 (stereo not given)	
88 nM	55 nM	38 nM	OC(CCN1CCC(Cc2ccccc2)CC1)c1ccc2[nH]ncc2c1 (stereo not given)	inhibition [13]: Active; inhibition [12]: > 80%; logD [5]: 1.75

Reference: ChEMBL document CHEMBL5360654, “Indazole as a Phenol Bioisostere: Structure-Affinity Relationships of GluN2B-Selective NMDA Receptor Antagonists” (J Med Chem, 2023)
